Data: patent US5268389A, “Thiocarboxylate ester compounds compositions containing the same” (priority 1990, dated 1993)
Where “and” joins values, the source holds several entries; their conditions need not be identical. Equal values may be shown once. Blank lines part the entries; values can stand above or below the compound they belong to.

Columns and labels:
[1] = tested on: HIV; test: Reduction of HIV cytopathic effect, CEMZ (CEM line with sub-effective amount of AZT); assay type: cell-based; conditions: CEM cells, read-out: Activity of Anti-HIV Compounds (EC50), CEMZ
Procedure: (§1) The compounds of Examples were tested for anti-AIDS activity by subjecting them to standard National Cancer Institute ("NCI") in vitro screening procedures. In carrying out each test, two blanks were run. In the first blank, HIV and a culture of a standard human cell line were incubated together to measure the infectivity of the virus. The viability of the cells was measured after holding for six or seven days. In an "effective" test, most cells were infected before the holding period was complete.
(§2) In the second blank, the cell line culture and the compound being tested (but not virus) were incubated together to measure the toxicity of the drug to the cellline. The viability of the cells was measured as a function of concentration of the compound, after holding for seven days. Typically, the cells survive at low compound concentrations, but at some higher concentration, toxicity of the compound is manifested and the cells die. The concentration of the test compound that results in 50% inhibition of cell growth is defined as the IC50.
(§3) Finally, the protective effects of the test compounds were measured. Each cell culture and test compound were incubated with the virus and the viability of the cells was measured as a function of compound concentration after holding for six or seven days. If the compound is active in protecting the cells against the virus, there is typically low cell viability until an effective concentration of the test compound is reached. At this point, cell viability increases steadily toward 100% unless the toxic effect of the compound (as measured in the second blank) takes effect. The concentration of the test compound that results in 50% "control," i.e., a 50% reduction of the viral cytopathic effect, is defined as the EC 50. The therapeutic index TI50 is calculated as IC50/EC50.
(§4) Values of test compound concentrations required for between 20 and 50% reduction of the viral cytopathic effect can also be determined. Such compounds are classified as moderately active.
(§5) The compounds were tested to determine their reduction of HIV cytopathic effect on the human cell lines CEM and MT2. Tests were done by innoculating these cell lines either with free HIV (V) or with a virus Previously cultured with host cells (C). Thus, in Table III the designation CEMV means CEM line cells innoculated with free virus and MT2C means MT2 cells innoculated with cultured viral infected MT2 cells. In some cases the compound was also tested on a cell line together with a sub-effective amount of the known HIV viricide AZT. This is done to test possible synergistic effects. Such a test on the CEM line is denoted CEMZ.

[2] = tested on: HIV; test: Reduction of HIV cytopathic effect, MT2C (MT2 cells inoculated with cultured virus-infected MT2 cells); assay type: cell-based; conditions: inhibition of viral cytopathic effect, MT2 cells, cultured virus
Procedure: as §1
In the second blank, the cell line culture and the compound being tested (but not virus) were incubated together to measure the toxicity of the drug to the cellline. The viability of the cells was measured as a function of concentration of the compound, after holding for seven days. […]
Finally, the protective effects of the test compounds were measured. Each cell culture and test compound were incubated with the virus and the viability of the cells was measured as a function of compound concentration after holding for six or seven days. […] At this point, cell viability increases steadily toward 100% unless the toxic effect of the compound (as measured in the second blank) takes effect. […] The therapeutic index TI50 is calculated as IC50/EC50.
(§6) Values of test compound concentrations required for between 20 and 50% reduction of the viral cytopathic effect can also be determined. […]

[3] = tested on: HIV; test: Reduction of HIV cytopathic effect, CEMC (CEM cells, virus previously cultured with host cells); assay type: cell-based; conditions: Human immunodeficiency virus 1, CCRF-CEM, read-out: Activity of Anti-HIV Compounds (EC50), CEMC
Procedure: as §1, §2
as §3, with “The concentration of the test compound that results in 50% "control," i.e., a 50% reduction of the viral cytopathic effect, is defined as the EC 50.” left out
as §6
5) Individual wells are analyzed spectrophotometrically to quantity formazan production, and in addition are viewed microscopically for detection of viable cells and confirmation of protective activity. […]

[4] = tested on: HIV; test: Reduction of HIV cytopathic effect, CEM-6 (CEMV test, six days); assay type: cell-based; conditions: inhibition of viral cytopathic effect, CEM cells, 8640 min
Procedure: as §1, §3, §4, §5
1) T4 lymphocytes (CEM cell line) are exposed to HIV at a virus to cell ratio of approximately 0.05 and plated along with non-infected control cells in 96-well microtiter plates.
2) Each candidate agent is dissolved in dimethyl sulfoxide (unless otherwise indicated), then diluted 1:200 in cell culture medium. Further dilutions (five-fold) are prepared before adding to an equal volume of medium containing either infected or noninfected cells.
3) Cultures are incubated at 37° C. in a 5% carbon dioxide atmosphere for seven days (if six days the CEMV test is identified as CEM-6).
(§7) 4) The tetrazolium salt, XTT, is added to all wells, and cultures are incubated to allow formazan color development by viable cells.
(§8) 5) Individual wells are analyzed spectrophotometrically to quantity formazan production, and in addition are viewed microscopically for detection of viable cells and confirmation of protective activity.
(§9) 6) Drug-treated virus-infected cells are compared with drug-treated non-infected cells and with other appropriate controls (untreated infected and untreated non-infected cells, drug-containing wells without cells, etc.) on the same plate.

[5] = tested on: HIV; test: Reduction of HIV cytopathic effect, CEM-IW protocol; assay type: cell-based; conditions: inhibition of viral cytopathic effect, asterisk: CEMIW protocol
Procedure: as §1, §3, §4, §5
The aforementioned identifiers are used when a batch was prepared and samples inserted into the wells. In procedures calling for the addition of the drug (or no drug) and the CEM uninfected cells to each well, followed by the subsequent addition of the HIV virus, the protocol is designated as CEM-IW.
as §7, §8, §9
Asterisks indicate the CEMIW protocol.

[6] = tested on: succinate dehydrogenase complex; conditions: mitochondria from Ustilago maydis, White et al. (1978); cited from earlier work

- EC50 ([1]; Human immunodeficiency virus 1, CCRF-CEM): 12 µM
SMILES: CCCOC(=O)c1cc(NC(=O)c2ccccc2C)ccc1Cl [Compound 24, Propyl 2-chloro-5-[(2-methylbenzoyl)amino]benzoate]

- EC50 [1]: 34.4 µM and 39.4 µM
SMILES: CC(C)OC(=O)c1cc(NC(=O)c2ccccc2F)ccc1Cl [Compound 25, 1-Methylethyl 2-chloro-5-[(2-fluorobenzoyl)amino]benzoate]

SMILES: CC1=C(C(=O)Nc2ccc(Cl)cc2)SCCS1 [Compound 26, N-(4-Chlorophenyl)-5,6-dihydro-3-methyl-1,4-dithiin-2-carboxamide]
- Activity class of Anti-HIV Compounds, MT2C [2]: MA (moderate activity (MA), that is, inhibition between approximately 20 and 50%)
- EC50 [3]: 35.5 µM

SMILES: COCCOCCOC(=O)c1cc(NC(=O)C2=C(C)OCCS2)ccc1Cl [Compound 78, 2-(2-Methoxyethoxy)ethyl 2-chloro-5-[[(5,6-dihydro-2-methyl-1,4-oxathiin-3-yl)carbonyl]amino]benzoate]
- Activity class of Anti-HIV Compounds, CEM-6 [4]: MA (moderate activity (MA), that is, inhibition between approximately 20 and 50%)
- Activity class of Anti-HIV Compounds, CEM-IW [5]: MA (moderate activity (MA), that is, inhibition between approximately 20 and 50%)

SMILES: Cc1nc(C)c(C(=O)Nc2ccc(Cl)c(C(=O)OC(C)C)c2)s1 [Compound 94]
- Activity class of Anti-HIV Compounds, CEM-6 [4]: MA (moderate activity (MA), that is, inhibition between approximately 20 and 50%)
- Activity class of Anti-HIV Compounds, CEM-IW [5]: MA (moderate activity (MA), that is, inhibition between approximately 20 and 50%)

SMILES: COC(=O)c1cccc(NC(=O)C2=C(C)OCCS2)c1 [methyl 3-[[(5,6-dihydro-2-methyl-1,4-oxathiin-3-yl)carbonyl]amino]benzoate, reference compound]
- inhibition of succinate dehydrogenase complex [6]: inhibitors of succinate dehydrogenase complex
